Key:
[1] = system: Chikungunya virus; test: Evaluation of antiviral activity against Chikungunya virus (EC90); format: cell-based; settings: Chikungunya virus, read-out: EC90 (μM) CHIKV, concentration required for 90% inhibition of CHIKV
From the text: EC90 refers to the concentration of the compound that is required for 90% antagonism or inhibition of CHIKV. EC90 also refers to the concentration of a substance that is required for 90% antagonism or inhibition of CHIKV in vivo.
(§1) The compounds below in Table 1 were synthesized with methods identical or analogous to those described herein. The requisite starting materials were commercially available, described in the literature, or readily synthesized by one skilled in the art of organic synthesis.

[2] = CC50 reported alongside the CHIKV antiviral assay (cytotoxicity); format: cell-based; settings: cell line not given
From the text: as §1

SMILES	EC90 [1]	CC50 [2]
COc1cc2c(cc1NC(=O)c1ccc(N(C)C)cc1)CCCCC2 [Compound 76, 4-(Dimethylamino)-N-(3-methoxy-6,7,8,9-tetrahydro-5H-benzo[7]annulen-2-yl)benzamide]	> 10 µM	> 30 µM
COc1cc2c(cc1NC(=O)C13C[C@H]4C[C@@H](C1)C[C@@H](C3)C4)CCCCC2 [Compound 42, (3r,5r,7r)-N-(3-methoxy-6,7,8,9-tetrahydro-5H-benzo[7]annulen-2-yl)adamantane-1-carboxamide]	12.1 µM	> 30 µM
COc1cc2c(cc1NC(=O)c1oc3ccccc3c1C)CCCCC2 [Compound 79, N-(3-methoxy-6,7,8,9-tetrahydro-5H-benzo[7]annulen-2-yl)-3-methylbenzofuran-2-carboxamide]	> 10 µM	> 30 µM
COc1cc2c(cc1N(C)C(=O)c1ccc(C(C)(C)C)cc1)CCCCC2 [Compound 30]	14.5 µM	> 30 µM
COc1cc2c(cc1NC(=O)c1ccc(C3CC3)cc1)CCCCC2 [Compound 80, 4-Cyclopropyl-N-(3-methoxy-6,7,8,9-tetrahydro-5H-benzo[7]annulen-2-yl)benzamide]	12.3 µM	> 30 µM
COc1cc2c(cc1NC(=O)c1ccc(Cl)cc1)CCCCC2 [Compound 71, 4-Chloro-N-(3-methoxy-6,7,8,9-tetrahydro-5H-benzo[7]annulen-2-yl)benzamide]	6.4 µM	> 30 µM
COc1cc2c(cc1NC(=O)Cc1cccs1)CCCCC2 [Compound 73, N-(3-Methoxy-6,7,8,9-tetrahydro-5H-benzo[7]annulen-2-yl)-2-(thiophen-2-yl)acetamide]	18.7 µM	> 30 µM
COc1cc2c(cc1NC(=O)c1ccc(C(=O)O)cc1)CCCCC2 [Compound 55]	> 10 µM	> 30 µM
